Data: patent US20240360146A1, “BRUTON'S TYROSINE KINASE AND MUTANT DEGRADER, COMPOSITION AND APPLICATION THEREOF” (HANGZHOU HEALZEN THERAPEUTICS CO., LTD., priority 2021, published 2024)

Molecular target: T1, BTK (Homo sapiens, UniProt Q06187)
T1 construct: endogenous in cells; host or cells: Mino cells
Test: BTK degradation activity test in Mino cells
Assay type: cell-based
Conditions: 16 h incubation, Western blot or Elisa
Outline: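 Mino cells treated with a concentration series of compound for 16 h, then lysed; total protein by BCA. BTK quantified by Western blot or ELISA, degradation rate calculated against blank control, and DC50 fitted from the degradation curve.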

T1 sequence (Q06187 whole entry): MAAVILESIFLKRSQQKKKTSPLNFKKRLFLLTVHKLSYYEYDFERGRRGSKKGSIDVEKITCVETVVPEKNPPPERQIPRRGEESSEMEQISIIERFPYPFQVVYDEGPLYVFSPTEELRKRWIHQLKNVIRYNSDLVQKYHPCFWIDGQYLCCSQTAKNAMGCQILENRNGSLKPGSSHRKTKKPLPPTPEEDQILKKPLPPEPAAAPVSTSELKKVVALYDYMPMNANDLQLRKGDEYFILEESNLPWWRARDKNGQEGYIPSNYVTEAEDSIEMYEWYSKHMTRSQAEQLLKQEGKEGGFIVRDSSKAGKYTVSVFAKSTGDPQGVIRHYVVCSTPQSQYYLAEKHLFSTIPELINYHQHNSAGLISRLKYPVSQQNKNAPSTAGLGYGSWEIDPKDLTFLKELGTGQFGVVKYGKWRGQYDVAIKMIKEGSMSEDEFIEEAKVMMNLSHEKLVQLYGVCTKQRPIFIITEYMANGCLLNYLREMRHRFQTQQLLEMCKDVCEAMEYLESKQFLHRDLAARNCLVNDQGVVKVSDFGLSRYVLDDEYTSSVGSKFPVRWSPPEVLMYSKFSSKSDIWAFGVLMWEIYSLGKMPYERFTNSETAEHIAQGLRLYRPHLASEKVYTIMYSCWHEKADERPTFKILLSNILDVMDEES

Q: With CN1CCN([C@@H]2CCCN(c3nnc(C(N)=O)c(Nc4ccc(N5CCN(C[C@H]6CCN(c7ccc(C(=O)N[C@H]8CCC(=O)NC8=O)nc7)C6)CC5)c(F)c4)n3)C2)C1=O [Compound 153, 5-((4-(4-(((R)-1-(6-(((S)-2,6-dioxopiperidin-3-yl)carbamoyl)pyridin-3-yl)pyrrolidin-3-yl)methyl)piperazin-1-yl)-3-fluorophenyl)amino)-3-((R)-3-(3-methyl-2-oxoimidazolin-1-yl)piperidin-1-yl)-1,2,4-triazin-6-carboxamide] as the compound, how does the DC50 read?
A: < 1 nM

Q: How did the DC50 turn out when NC(=O)c1nnc(N2CCCC(N3CCN(c4ccccc4)C3=O)C2)nc1Nc1ccc(C2CCN(CC3CCN(c4ccc5c(c4)CN(C4CCC(=O)NC4=O)C5=O)CC3)CC2)cc1 (centres unmarked) [Compound 100, 5-((4-(1-((1-(2-(2,6-dioxopiperidin-3-yl)-1-oxoisoindol-5-yl)piperidin-4-yl)methyl)piperidin-4-yl)phenyl)amino)-3-(3-(2-oxo-3-phenylimidazolin-1-yl)piperidin-1-yl)-1,2,4-triazin-6-carboxamide] was run?
A: < 1 nM

Q: How did the DC50 turn out when CN1C(=O)N(C2CCCN(c3nnc(C(N)=O)c(Nc4ccc(C5CCN(CC6CCN(c7ccc8c(c7)C(=O)N(C7CCC(=O)NC7=O)C8=O)CC6)CC5)cc4)n3)C2)CC12CC2 (centres unmarked) [Compound 068, 5-((4-(1-((1-(2-(2,6-dioxopiperidin-3-yl)-1,3-dioxoisoindol-5-yl)piperidin-4-yl)methyl)piperidin-4-yl)phenyl)amino)-3-(3-(4-methyl-5-oxo-4,6-diazaspirocyclo[2.4]heptan-6-yl)piperidin-1-yl)-1,2,4-triazin-6-carboxamide] was run?
A: < 1 nM

Q: How did the DC50 turn out when COc1cc(C(N)=O)c(Nc2ccc(C3(C)CCN(CC4CCN(c5ccc6c(c5)C(=O)N(C5CCC(=O)NC5=O)C6=O)C4)CC3)cc2)nc1N1CCCC(N2CCN(C)C2=O)C1 (centres unmarked) [Compound 038, 2-((4-(1-((1-(2-(2,6-dioxopiperidin-3-yl)-1,3-dioxoisoindolin-5-yl)pyrrolidin-3-yl)methyl)-4-methylpiperidin-4-yl)phenyl)amino)-5-methoxy-6-(3-(3-methyl-2-oxoimidazolin-1-yl)piperidin-1-yl)nicotinamide] was run?
A: < 1 nM

Q: How did the DC50 turn out when CCc1nc(C(N)=O)c(Nc2ccc(C3(C)CCN(C4CN(c5ccc6c(c5)C(=O)N(C5CCC(=O)NC5=O)C6=O)C4)CC3)cc2)nc1N1CCCC(N2CCN(C)C2=O)C1 (centres unmarked) [Compound 007] was run?
A: < 1 nM

Q: Which DC50 does the source give for CN1CCN([C@@H]2CCCN(c3nnc(C(N)=O)c(Nc4ccc(N5CCN(C#Cc6ccc(C(=O)NC7CCC(=O)NC7=O)c(F)c6)CC5)c(F)c4)n3)C2)C1=O (stereo partly drawn) [Compound 225, 5-((4-(4-((4-((2,6-dioxopiperidin-3-yl)carbamoyl)-3-fluorophenyl)ethynyl)piperazin-1-yl)-3-fluorophenyl)amino)-3-((R)-3-(3-methyl-2-oxoimidazolidin-1-yl)piperidin-1-yl)-1,2,4-triazin-6-carboxamide] here?
A: < 1 nM

Q: How did the DC50 turn out when NC(=O)c1ncc(N2CCCC(N3CCN(C4CCCC4)C3=O)C2)nc1Nc1ccc2c(c1)CCN(CC1CN(c3ccc4c(c3)C(=O)N(C3CCC(=O)NC3=O)C4=O)C1)C2 (centres unmarked) [Compound 033, 5-(3-(3-cyclopentyl-2-oxoimidazolin-1-yl)piperidin-1-yl)-3-((2-((1-(2-(2,6-dioxopiperidin-3-yl)-1,3-dioxoisoindol-5-yl)azetidin-3-yl)methyl)-1,2,3,4-tetrahydroisoquinolin-6-yl)amino)pyrazin-2-carboxamide] was run?
A: < 1 nM

Q: Which DC50 does the source give for CN1CCN([C@@H]2CCCN(c3nnc(C(N)=O)c(Nc4ccc(N5CCN(CC6CCN(c7ccc8c(C9CCC(=O)NC9=O)nn(C)c8c7)C6)CC5)c(F)c4)n3)C2)C1=O (stereo partly drawn) [Compound 212, 5-((4-(4-((1-(3-(2,6-dioxopiperidin-3-yl)-1-methyl-1H-indazol-6-yl)pyrrolidin-3-yl)methyl)piperazin-1-yl)-3-fluorophenyl)amino)-3-((R)-3-(3-methyl-2-oxoimidazolidin-1-yl)piperidin-1-yl)-1,2,4-triazin-6-carboxamide] here?
A: < 1 nM

Q: With NC(=O)c1nnc(N2CCCC(N3CCN(C(F)(F)F)C3=O)C2)nc1Nc1ccc(C2CCN(CC3CCN(c4ccc5c(c4)C(=O)N(C4CCC(=O)NC4=O)C5=O)CC3)CC2)cc1 (centres unmarked) [Compound 056, 5-((4-(1-((1-(2-(2,6-dioxopiperidin-3-yl)-1,3-dioxoisoindol-5-yl)piperidin-4-yl)methyl)piperidin-4-yl)phenyl)amino)-3-(3-(2-oxo-3-(trifluoromethyl)imidazolin-1-yl)piperidin-1-yl)-1,2,4-triazin-6-carboxamide] as the compound, how does the DC50 read?
A: < 1 nM

Q: With NC(=O)c1ncc(N2CCCC(N3CCN(C4CCCC4)C3=O)C2)nc1Nc1ccc(C2CCN(CC3CCN(c4ccc5c(c4)C(=O)N(C4CCC(=O)NC4=O)C5=O)C3)CC2F)cc1 (centres unmarked) [Compound 043, 5-(3-(3-cyclopentyl-2-oxoimidazolin-1-yl)piperidin-1-yl)-3-((4-(1-((1-(2-(2,6-dioxopiperidin-3-yl)-1,3-dioxoisoindolin-5-yl)pyrrolidin-3-yl)methyl)-3-fluoropiperidin-4-yl)phenyl)amino)pyrazin-2-carboxamide] as the compound, how does the DC50 read?
A: > 1 nM

Q: For CC1(c2ccc(Nc3nc(N4CCCC(N5CCN(C6CCOCC6)C5=O)C4)cnc3C(N)=O)cc2)CCN(C2CN(c3ccc4c(c3)C(=O)N(C3CCC(=O)NC3=O)C4=O)C2)CC1 (centres unmarked) [Compound 004, 3-((4-(1-(1-(2-(2,6-dioxopiperidin-3-yl)-1,3-dioxoisoindol-5-yl)azetidine-3-yl)-4-methylpiperidin-4-yl)phenyl)amino)-5-(3-(2-oxo-3-(tetrahydro-2H-pyran-4-yl)imidazolin-1-yl)piperidin-1-yl)pyrazin-2-carboxamide], which DC50 is on record?
A: < 1 nM

Q: CN1C(=O)N(C2CCCN(c3cnc(C(N)=O)c(Nc4ccc(C5CCN(CC6CCN(c7ccc8c(c7)C(=O)N(C7CCC(=O)NC7=O)C8=O)C6)CC5)cc4)n3)C2)CC12CC2 (centres unmarked) [Compound 044, 3-((4-(1-((1-(2-(2,6-dioxopiperidin-3-yl)-1,3-dioxoisoindolin-5-yl)pyrrolidin-3-yl)methyl)piperidin-4-yl)phenyl)amino)-5-(3-(4-methyl-5-oxo-4,6-diazaspiro[2.4]cycloheptan-6-yl)piperidin-1-yl)pyrazin-2-carboxamide] was tested. Which DC50 did it give?
A: < 1 nM

Q: For Cc1cc(N2CCC(CN3CCC(c4ccc(Nc5c(F)c(N6CCC[C@@H](N7CCN(C)C7=O)C6)c(F)c(F)c5C(N)=O)cc4F)CC3)CC2)ccc1N1CCC(=O)NC1=O [Compound 242, (R)-2-((4-(1-((1-(4-(2,4-dioxotetrahydropyrimidin-1(2H)-yl)-3-methylphenyl)piperidin-4-yl)methyl)piperidin-4-yl)-3-fluorophenyl)amino)-3,5,6-trifluoro-4-(3-(3-methyl-2-oxoimidazolidin-1-yl)piperidin-1-yl)benzamide], which DC50 is on record?
A: < 1 nM

Q: NC(=O)c1nnc(N2CCCC(N3CCN(c4ccccc4)C3=O)C2)nc1Nc1ccc(C2CCN(C3CN(c4ccc5c(c4)C(=O)N(C4CCC(=O)NC4=O)C5=O)C3)CC2)cc1 (centres unmarked) [Compound 090, 5-((4-(1-(1-(2-(2,6-dioxopiperidin-3-yl)-1,3-dioxoisoindol-5-yl)azetidin-3-yl)piperidin-4-yl)phenyl)amino)-3-(3-(2-oxo-3-phenylimidazolin-1-yl)piperidin-1-yl)-1,2,4-triazin-6-carboxamide] was tested. Which DC50 did it give?
A: < 1 nM

Q: With CN1CCN([C@@H]2CCCN(c3nnc(C(N)=O)c(Nc4ccc(N5CCN(CC6CCN(c7ccc(NC8CCC(=O)NC8=O)nc7)C6)CC5)c(F)c4)n3)C2)C1=O (stereo partly drawn) [Compound 200, 5-((4-(4-((1-(6-((2,6-dioxopiperidin-3-yl)amino)pyridin-3-yl)pyrrolidin-3-yl)methyl)piperazin-1-yl)-3-fluorophenyl)amino)-3-((R)-3-(3-methyl-2-oxoimidazolidin-1-yl)piperidin-1-yl)-1,2,4-triazin-6-carboxamide] as the compound, how does the DC50 read?
A: < 1 nM

Q: How did the DC50 turn out when CN1CCN(C2CC3CC2N(c2nnc(C(N)=O)c(Nc4ccc(C5(C)CCN(C6CCN(c7ccc8c(c7)C(=O)N(C7CCC(=O)NC7=O)C8=O)CC6)CC5)cc4)n2)C3)C1=O (centres unmarked) [Compound 104, 5-((4-(1′-(2-(2,6-dioxopiperidin-3-yl)-1,3-dioxoisoindol-5-yl)-4-methyl-[1,4′-bipiperidin]-4-yl)phenyl)amino)-3-(6-(3-methyl-2-oxoimidazolin-1-yl)-2-azabicyclo[2.2.1]heptan-2-yl)-1,2,4-triazin-6-carboxamide] was run?
A: < 1 nM

Q: For CN1CCN([C@@H]2CCCN(c3nnc(C(N)=O)c(Nc4ccc(N5CCN(CC6CCN(c7ccc(NC8CCC(=O)NC8=O)cc7C(F)(F)F)CC6)CC5)c(F)c4)n3)C2)C1=O (some centres unmarked) [Compound 252], which DC50 is on record?
A: < 1 nM

Q: Which DC50 does the source give for CN1CCN([C@@H]2CCCN(c3nnc(C(N)=O)c(Nc4ccc(N5CCN(CC6CCN(c7cccc8c(C9CCC(=O)NC9=O)nn(C)c78)C6)CC5)c(F)c4)n3)C2)C1=O (stereo partly drawn) [Compound 216, 5-((4-(4-((1-(3-(2,6-dioxopiperidin-3-yl)-1-methyl-1H-indazol-7-yl)pyrrolidin-3-yl)methyl)piperazin-1-yl)-3-fluorophenyl)amino)-3-((R)-3-(3-methyl-2-oxoimidazolidin-1-yl)piperidin-1-yl)-1,2,4-triazin-6-carboxamide] here?
A: < 1 nM

Q: Which DC50 does the source give for NC(=O)c1nnc(N2CCCC(N3CCN(c4ccccc4)C3=O)C2)nc1Nc1ccc(C2CCN(CC3CCN(c4cc5c(cc4F)C(=O)N(C4CCC(=O)NC4=O)C5=O)CC3)CC2)cc1 (centres unmarked) [Compound 098, 5-((4-(1-((1-(2-(2,6-dioxopiperidin-3-yl)-6-fluoro-1,3-dioxoisoindol-5-yl)piperidin-4-yl)methyl)piperidin-4-yl)phenyl)amino)-3-(3-(2-oxo-3-phenylimidazolin-1-yl)piperidin-1-yl)-1,2,4-triazin-6-carboxamide] here?
A: < 1 nM

Q: For CN1CCN([C@@H]2CCCN(c3nnc(C(N)=O)c(Nc4ccc(N5CCN(CC6CCN(c7ccc8c(c7)C(=O)N(C7CCC(=O)NC7=O)C8=O)CC6)CC5)c(Cl)c4)n3)C2)C1=O (stereo partly drawn) [Compound 164, 5-((3-chloro-4-(4-((1-(2-(2,6-dioxopiperidin-3-yl)-1,3-dioxoisoindolin-5-yl)piperidin-4-yl)methyl)piperazin-1-yl)phenyl)amino)-3-((R)-3-(3-methyl-2-oxoimidazolidin-1-yl)piperidin-1-yl)-1,2,4-triazin-6-carboxamide], which DC50 is on record?
A: < 1 nM
